{"source": "paper PMC10412636", "about": "“An analysis of interactions between three structurally diverse anthocyanidins, as well as their glucosides, and model biological membranes, albumin, and plasmid DNA” (Scientific Reports, 2023)", "key": {"[1]": {"assay": "DPH probe fluorescence anisotropy in RBCM liposomes", "parameters": "species or system human", "settings": "RBCM, negative = increase in anisotropy", "quoted_text": "(§1) Two types of liposomes were used to study interactions with biological membranes: liposomes mimicking the composition of cancer cell membranes (mimic membrane liposome—MM) and liposomes formed from lipids extracted from human blood erythrocyte membranes (red blood cell membrane liposome—RBCM). […] Both lipids, dissolved in chloroform (MM liposome) and n-decane (RBCM liposome), were evaporated under a nitrogen atmosphere, and then dried in a desiccator for 90 min under a vacuum. The obtained dry lipid film was hydrated in phosphate buffer, pH 7.4, obtaining a concentration of 0.1 mg/ml, and then vortexed for one minute until a homogeneous, milky suspension was observed. The mixture was sonicated (Sonic, Milano, Italia) for 15 min keeping the sample in a bath of ice water, thus providing a cooling temperature of 0 °C. The suspension was then processed (extrusion) through polycarbonate filters with pore diameters of 100 and 200 nm using a Lipex extruder (Evonik). Liposomes, which had been prepared according to this procedure, was used in fluorimetric studies.\n(§2) To investigate these properties three fluorescent probes were used: MC540, TMA-DPH, and DPH. MC540 localizes to the outer, hydrophilic part of the membrane, within the region of the glycerol skeleton[44]. Changes in the fluorescence intensity of this probe were formulated as the relative change in intensity to the control as a function of anthocyanins concentration. The TMA-DPH and DPH probes are supposed to locate nearer to the interface and in the hydrophobic region, respectively[45]. The measurement of changes in the anisotropy of the TMA-DPH and DPH probes allowed us to reflect the mobility of the fluorescent probes in the membrane, and therefore to determine the fluidity of the bilayer[46]. Fluorescence anisotropy was calculated using the formula[47]:1 A=I‖-GI⊥/I‖+2GI⊥ where I‖ and I⊥ are the intensity of fluorescence in parallel and perpendicular directions, to the plane of polarization of the excitation wave, respectively. G is an apparatus constant that depends on the emission wavelength.\n(§3) Liposomes (the concentration of lipids in the sample was 0.1 mg/ml) were incubated for 30 min with the appropriate probe (dissolved in DMF, 1 µM concentration), and then the tested anthocyanins were added (final concentration of 1 to 30 µM). The control sample consisted of liposomes and a fluorescent probe. Fluorescence was measured on a fluorimeter (Cary Eclipse, Varian, San Diego, USA) at 37 °C. The excitation wavelengths λex and emission wavelengths λem respectively: MC540—λexc = 540 nm, λem = 590 nm; DPH—λexc = 360 nm, λem = 425 nm. nm; TMA-DPH—λexc = 340 nm, λem = 430 nm."}, "[2]": {"target": "human serum albumin (HSA) (Homo sapiens, UniProt P02768)", "sequence (P02768 25-609)": "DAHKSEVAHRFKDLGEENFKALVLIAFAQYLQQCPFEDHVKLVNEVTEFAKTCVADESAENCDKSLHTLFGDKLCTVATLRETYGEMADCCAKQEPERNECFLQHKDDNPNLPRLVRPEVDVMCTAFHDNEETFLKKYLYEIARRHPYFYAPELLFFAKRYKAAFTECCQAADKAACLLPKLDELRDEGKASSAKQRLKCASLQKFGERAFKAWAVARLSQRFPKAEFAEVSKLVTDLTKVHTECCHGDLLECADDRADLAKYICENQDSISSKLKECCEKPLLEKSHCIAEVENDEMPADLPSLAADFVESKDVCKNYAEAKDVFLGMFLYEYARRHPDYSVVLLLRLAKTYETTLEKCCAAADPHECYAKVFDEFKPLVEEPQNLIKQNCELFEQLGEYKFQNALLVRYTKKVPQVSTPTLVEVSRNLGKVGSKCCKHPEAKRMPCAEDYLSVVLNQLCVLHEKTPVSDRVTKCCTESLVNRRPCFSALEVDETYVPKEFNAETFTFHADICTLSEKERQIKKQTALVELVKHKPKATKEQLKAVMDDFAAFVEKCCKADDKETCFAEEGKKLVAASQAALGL", "assay": "Quenching of natural fluorescence of human serum albumin", "format": "binding", "settings": "HSA […] 10^–5 M, 37 °C", "quoted_text": "The phenomenon of quenching the natural fluorescence of human serum albumin (HSA) was used to investigate the potential interaction of anthocyanins with this protein. […] Anthocyanins with concentrations ranging from 1 to 30 µM were added to HSA dissolved in phosphate buffer (1.5 × 10^–5 M) and then incubated at 37 °C for 20 min. Emission spectra were performed on a fluorimeter Cary Eclipse (Varian, San Diego, USA) at 37 °C. HSA fluorescence was excited with a wavelength of λ = 280 nm, the emission was measured in the range from 286 to 460 nm, and the fluorescence intensity was read at 345 nm where the emission maximum of HSA was located.\nThe Stern–Volmer equation was used to thoroughly describe the quenching mechanism of natural fluorescence and to determine the bindings parameters of HSA: anthocyanin complexes:4 F0/F=1+Kqτ0Q=1+KSV[Q] where F0—fluorescence intensity in the absence of anthocyanins (control sample), F—fluorescence intensity in the presence of anthocyanins, KSV—Stern–Volmer quenching constant (KSV = Kq·τ0), [Q]—concentration of quencher (tested compound), Kq—bimolecular quenching constant, τ0—a lifetime of the fluorophore in the absence of quencher the fluorescence lifetime of a biopolymer is calculated as 5 × 10^–9 s[51].\nThe apparent binding constants (Kb) and the number of binding sites (n) can be calculated using the following equation:5 log(F0-F/F]=logKb+nlog[Q]\nF0 and F are the fluorescence intensities before and after the addition of the quencher. From the linear plot of log (F0 − F)/F versus log [Q], the value of Kb was obtained from the intercept."}, "[3]": {"assay": "MC540 probe fluorescence intensity in MM liposomes", "settings": "37 °C, positive = decrease", "quoted_text": "as §1, §2, §3"}, "[4]": {"system": "pHbApr-1-Neo plasmid DNA", "assay": "TCSPC-FCS of PicoGreen-labelled plasmid DNA with anthocyanins", "format": "binding", "experimental": "To evaluate the biological interaction with DNA molecules the anthocyanins were initially dissolved in ETOH (1 mM). […] Mixing of such solutions with the aqueous DNA solutions used in the studies never exceeded 1% concentration ETOH (v/v) in the final solution. The DNA plasmid was labelled by PicoGreen (CPicoGreen/CDNAbp = 0.02)[52]. The pHbApr-1-Neo plasmid (10 kbp and contour length 3.4 µm) was a generous gift from the laboratory of Prof. Maciej Ugorski (Department of Biochemistry and Molecular Biology, Wrocław University of Environmental and Life Sciences Wroclaw, Poland). PicoGreen-labelled DNA samples mixed with the appropriate amount of anthocyanins were left overnight and then measured. The increasing concentration of anthocyanins in the tested samples was expressed as the ratio of the molar concentration of anthocyanins per molar concentration of DNA base pairs in a given sample (comp/bp). The 100 µl samples were measured in Ibidi 8-well chambers. Each point on the graph is a single sample (average of 10 measurements). All measurements were performed at room temperature (25 °C). Time-correlated single-photon counting fluorescence correlation spectroscopy (TCSPC-FCS) was used to study the interaction of plasmid DNA at the single molecule level with all tested anthocyanins. […] Low power of 1uW (at the back aperture of the objective) was chosen to minimize photobleaching and saturation. In the detection plane, a pinhole (50um in diameter) was used and the signal was collected by a single photon avalanche diode (SPAD, Microphoton Devices, Bolzano, Italy). Photon arrival times were stored using fast electronics (Picoharp 300, PicoQuant) in time-tagged time-resolved recording mode. Two independent times were assigned to each detected photon: (1) a time after the beginning of the measurement and (2) a time after the previous laser pulse. The FCS data analysis was done using home-built routines (DevC++, Bloodshed Software and OriginPro70, OriginLab Corporation). The TCSPC data analysis was performed using SymPhoTime software (PicoQuant). Further details of the data evaluation are given elsewhere."}, "[5]": {"assay": "DPH fluorescence quenching, dissociation constant with RBCM liposome membrane", "format": "binding, human", "settings": "37 °C", "quoted_text": "as §1\n(§4) The phenomenon of quenching the fluorescence of the DPH probe by biologically active substances enabled us to evaluate the partition coefficient (Kd, dissociation constant) of anthocyanins with both MM and RBCM liposome membranes. For this purpose, changes in the fluorescence intensity of this probe were checked and the coefficient was calculated using the equation[48]:2 1/F0/F-1=Kd/[liposomes]×1/[anthocyanins]+1/liposomes where F0—fluorescence intensity in the absence of anthocyanins (control sample), F—fluorescence intensity in the presence of anthocyanins, [liposomes]—concentration of liposomes in mg/ml, [anthocyanins]—concentration of anthocyanins tested mg/ml.\nas §3"}, "[6]": {"assay": "DPH probe fluorescence anisotropy in MM liposomes", "settings": "MM, negative = increase in anisotropy", "quoted_text": "as §1, §2, §3"}, "[7]": {"assay": "MC540 probe fluorescence intensity in RBCM liposomes", "parameters": "species or system human", "settings": "37 °C, positive = decrease", "quoted_text": "as §1, §2, §3"}, "[8]": {"assay": "DPH fluorescence quenching, dissociation constant with MM liposome membrane", "format": "binding", "settings": "37 °C", "quoted_text": "as §1, §4, §3"}, "[9]": {"assay": "TMA-DPH probe fluorescence anisotropy in RBCM liposomes", "parameters": "species or system human", "settings": "negative = increase in anisotropy", "text": "Two types of liposomes were used to study interactions with biological membranes: liposomes mimicking the composition of cancer cell membranes (mimic membrane liposome—MM) and liposomes formed from lipids extracted from human blood erythrocyte membranes (red blood cell membrane liposome—RBCM). […] The RBCM liposome was according to the methodology described previously[42] with minor modifications[43]. Both lipids, dissolved in chloroform (MM liposome) and n-decane (RBCM liposome), were evaporated under a nitrogen atmosphere, and then dried in a desiccator for 90 min under a vacuum. The obtained dry lipid film was hydrated in phosphate buffer, pH 7.4, obtaining a concentration of 0.1 mg/ml, and then vortexed for one minute until a homogeneous, milky suspension was observed. The mixture was sonicated (Sonic, Milano, Italia) for 15 min keeping the sample in a bath of ice water, thus providing a cooling temperature of 0 °C. The suspension was then processed (extrusion) through polycarbonate filters with pore diameters of 100 and 200 nm using a Lipex extruder (Evonik). Liposomes, which had been prepared according to this procedure, was used in fluorimetric studies.\nTo investigate these properties three fluorescent probes were used: MC540, TMA-DPH, and DPH. MC540 localizes to the outer, hydrophilic part of the membrane, within the region of the glycerol skeleton[44]. […] The TMA-DPH and DPH probes are supposed to locate nearer to the interface and in the hydrophobic region, respectively[45]. The measurement of changes in the anisotropy of the TMA-DPH and DPH probes allowed us to reflect the mobility of the fluorescent probes in the membrane, and therefore to determine the fluidity of the bilayer[46]. Fluorescence anisotropy was calculated using the formula[47]:1 A=I‖-GI⊥/I‖+2GI⊥ where I‖ and I⊥ are the intensity of fluorescence in parallel and perpendicular directions, to the plane of polarization of the excitation wave, respectively. G is an apparatus constant that depends on the emission wavelength.\nas §3"}, "[10]": {"assay": "TMA-DPH probe fluorescence anisotropy in MM liposomes", "settings": "negative = increase in anisotropy", "quoted_text": "as §1, §2, §3"}}}
{"smiles": "Oc1cc(O)c2cc(O)c(-c3cc(O)c(O)c(O)c3)[o+]c2c1", "note": "[Dp, Delphinidin]", "values": [{"measurement": "Changes in DPH anisotropy relative to the control", "setting": "[1]; 1 µM", "result": "-9.06±0.14", "unit": "%"}, {"measurement": "Changes in DPH anisotropy relative to the control", "setting": "[1]; 5 µM", "result": "-9.32±0.41", "unit": "%"}, {"measurement": "Changes in DPH anisotropy relative to the control", "setting": "[1]; 10 µM", "result": "-6.55±0.22", "unit": "%"}, {"measurement": "Changes in DPH anisotropy relative to the control", "setting": "[1]; 20 µM", "result": "-8.84±0.31", "unit": "%"}, {"measurement": "Changes in DPH anisotropy relative to the control", "setting": "[1]; 30 µM", "result": "-7.33±0.24", "unit": "%"}, {"measurement": "Stern Volmer constant KSV", "setting": "[2]", "result": "22.46 ± 1.00 × 10^3 M^−1"}, {"measurement": "number of binding sites n", "setting": "[2]", "result": "1.03 ± 0.05"}, {"measurement": "Changes in MC540 fluorescence intensity relative to the control", "setting": "[3]; 1 µM", "result": "13.66±1.64", "unit": "%"}, {"measurement": "Changes in MC540 fluorescence intensity relative to the control", "setting": "[3]; 5 µM", "result": "26.57±1.99", "unit": "%"}, {"measurement": "Changes in MC540 fluorescence intensity relative to the control", "setting": "[3]; 10 µM", "result": "41.91±1.76", "unit": "%"}, {"measurement": "Changes in MC540 fluorescence intensity relative to the control", "setting": "[3]; 20 µM", "result": "63.50±4.28", "unit": "%"}, {"measurement": "Changes in MC540 fluorescence intensity relative to the control", "setting": "[3]; 30 µM", "result": "73.23±5.31", "unit": "%"}, {"measurement": "Changes in MC540 fluorescence intensity relative to the control", "setting": "[3]; 30 µM, listed as delphinidin", "result": "73.2 ± 5.3", "unit": "%"}, {"measurement": "change in Particle Number (PN)", "setting": "[4]; comp/bp 1.0–5.0", "result": "no changes"}, {"measurement": "diffusion time (tD), plateau", "setting": "[4]; comp/bp 1.0–5.0", "result": "25 to 28", "unit": "ms"}, {"measurement": "lifetime (LT)", "setting": "[4]; comp/bp 1.0–5.0, decrease from 3.5 ns", "result": "about 2.3 ns"}, {"measurement": "decrease in the diffusion time (tD)", "setting": "[4]; comp/bp = 0.8, from about 70 ms", "result": "tenfold"}, {"measurement": "lifetime (LT)", "setting": "[4]; comp/bp = 0.8, plasmid alone 4.25 ns", "result": "about 3.5 ns"}, {"measurement": "Particle Number (PN)", "setting": "[4]; comp/bp = 0.8, plasmid alone 5", "result": "about 1.2"}, {"measurement": "diffusion time (tD)", "setting": "[4]; comp/bp = 0.8, plasmid alone about 70 ms", "result": 7.0, "unit": "ms"}, {"measurement": "changes in plasmid tD, lower compared to those obtained for Pt 3-glc", "setting": "[4]; comp/bp up to 0.8", "result": "about 2 fold"}, {"measurement": "decrease in tD compared to the initial plasmid diffusion time", "setting": "[4]; plateau, comp/bp 1.0–5.0", "result": "twofold"}, {"measurement": "Kd", "setting": "[5]", "result": "9.89 ± 1.96", "unit": "µM"}, {"measurement": "Changes in DPH anisotropy relative to the control", "setting": "[6]; 1 µM", "result": "-8.87±0.24", "unit": "%"}, {"measurement": "Changes in DPH anisotropy relative to the control", "setting": "[6]; 5 µM", "result": "-12.33±0.13", "unit": "%"}, {"measurement": "Changes in DPH anisotropy relative to the control", "setting": "[6]; 10 µM", "result": "-14.45±0.24", "unit": "%"}, {"measurement": "Changes in DPH anisotropy relative to the control", "setting": "[6]; 20 µM", "result": "-16.33±0.38", "unit": "%"}, {"measurement": "Changes in DPH anisotropy relative to the control", "setting": "[6]; 30 µM", "result": "-12.45±0.57", "unit": "%"}, {"measurement": "Changes in MC540 fluorescence intensity relative to the control", "setting": "[7]; 1 µM", "result": "19.22±0.56", "unit": "%"}, {"measurement": "Changes in MC540 fluorescence intensity relative to the control", "setting": "[7]; 5 µM", "result": "30.39±0.90", "unit": "%"}, {"measurement": "Changes in MC540 fluorescence intensity relative to the control", "setting": "[7]; 10 µM", "result": "42.45±2.77", "unit": "%"}, {"measurement": "Changes in MC540 fluorescence intensity relative to the control", "setting": "[7]; 20 µM", "result": "58.15±3.73", "unit": "%"}, {"measurement": "Changes in MC540 fluorescence intensity relative to the control", "setting": "[7]; 30 µM", "result": "64.08±6.62", "unit": "%"}, {"measurement": "Changes in MC540 fluorescence intensity relative to the control", "setting": "[7]; 30 µM, listed as delphinidin", "result": "64.1 ± 6.6", "unit": "%"}, {"measurement": "Kd", "setting": "[8]", "result": "11.5 ± 2.07", "unit": "µM"}, {"measurement": "Changes in TMA-DPH anisotropy relative to the control", "setting": "[9]; 1 µM", "result": "-5.61±0.35", "unit": "%"}, {"measurement": "Changes in TMA-DPH anisotropy relative to the control", "setting": "[9]; 5 µM", "result": "-2.41±0.11", "unit": "%"}, {"measurement": "Changes in TMA-DPH anisotropy relative to the control", "setting": "[9]; 10 µM", "result": "1.85±0.06", "unit": "%"}, {"measurement": "Changes in TMA-DPH anisotropy relative to the control", "setting": "[9]; 20 µM", "result": "1.35±0.15", "unit": "%"}, {"measurement": "Changes in TMA-DPH anisotropy relative to the control", "setting": "[9]; 30 µM", "result": "4.73±0.21", "unit": "%"}, {"measurement": "Changes in TMA-DPH anisotropy relative to the control", "setting": "[10]; 1 µM", "result": "-5.27±0.20", "unit": "%"}, {"measurement": "Changes in TMA-DPH anisotropy relative to the control", "setting": "[10]; 5 µM", "result": "-5.27±0.16", "unit": "%"}, {"measurement": "Changes in TMA-DPH anisotropy relative to the control", "setting": "[10]; 10 µM", "result": "-2.04±0.17", "unit": "%"}, {"measurement": "Changes in TMA-DPH anisotropy relative to the control", "setting": "[10]; 20 µM", "result": "0.86±0.02", "unit": "%"}, {"measurement": "Changes in TMA-DPH anisotropy relative to the control", "setting": "[10]; 30 µM", "result": "-7.43±0.30", "unit": "%"}]}
